# Measured values: BindingDB's records for doi:10.1016/j.bmcl.2009.04.124 (H. Lee Moffitt Cancer Center, 2009)
# Target: E3 ubiquitin-protein ligase Mdm2 (Homo sapiens, UniProt Q00987)
# Assay: AlphaScreen Assay
# Conditions: pH 7.4; 24 °C
# Procedure: When two proteins interact (one of which is conjugated to the donor bead and the other to the acceptor bead) the beads are brought into close proximity. Excitation of a photosensitizer in the donor bead results in the production of singlet oxygen that diffuses to and reacts with a chemiluminescent molecule in the acceptor bead. […] Nickel acceptor beads and glutathione donor beads were added. Following 1 h incubation at 24 deg C, the mixture was analyzed in a fluorometer at an excitation wavelength of 680 nm. Nutlin-3a obtained from Cayman Chemical was used as a control. The IC50 values reported are from runs repeated four times.
# Sequence of E3 ubiquitin-protein ligase Mdm2 (Q00987 whole entry): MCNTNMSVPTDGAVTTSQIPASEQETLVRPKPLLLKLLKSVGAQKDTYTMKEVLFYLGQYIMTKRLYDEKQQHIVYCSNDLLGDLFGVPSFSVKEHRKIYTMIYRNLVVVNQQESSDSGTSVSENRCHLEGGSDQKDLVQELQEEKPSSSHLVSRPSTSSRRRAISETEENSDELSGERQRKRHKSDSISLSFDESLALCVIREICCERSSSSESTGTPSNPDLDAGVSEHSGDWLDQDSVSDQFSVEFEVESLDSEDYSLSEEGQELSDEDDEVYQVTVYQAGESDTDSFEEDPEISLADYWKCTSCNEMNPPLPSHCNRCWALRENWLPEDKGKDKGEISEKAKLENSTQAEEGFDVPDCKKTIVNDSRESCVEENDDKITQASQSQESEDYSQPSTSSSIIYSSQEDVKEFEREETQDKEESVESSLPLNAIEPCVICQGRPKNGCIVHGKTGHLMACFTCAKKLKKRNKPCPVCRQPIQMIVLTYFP
smiles,measurement,value
c1ccc(C(N=Nc2nc3ccccc3s2)c2ccccn2)cc1 (stereo unspecified) [NSC-333003],IC50,25 µM
